77 compounds from PMC9718554, “Discovery of a fragment hit compound targeting D-Ala:D-Ala ligase of bacterial peptidoglycan biosynthesis” (Journal of Enzyme Inhibition and Medicinal Chemistry, 2022) can be followed below.

Where two headings read alike, the source gives them in different places.

This test concerns the target T1, E. coli DdlB enzyme (D-alanine:D-alanine ligase) (Escherichia coli, UniProt P07862).
T1 construct: made in house; host or cells: E. coli
The experiment in a line: biochemical. Conditions: for remaining activity at 2500 µM: tested concentration 2.5 mM; for remaining activity at 2300 µM: tested concentration 2.3 mM; for remaining activity at 2400 µM: tested concentration 2.4 mM; for remaining activity at 2100 µM: tested concentration 2.1 mM; for remaining activity at 1900 µM: tested concentration 1.9 mM; for remaining activity at 3200 µM: tested concentration 3.2 mM; for remaining activity at 1700 µM: tested concentration 1.7 mM; for remaining activity at 1800 µM: tested concentration 1.8 mM; for remaining activity at 1500 µM: at 1.5 mM; for remaining activity at 1500 µM / remaining activity at 5000 µM: read-out: DdlB inhibition, RA (Residual Activity); for remaining activity at 5000 µM: at 5 mM; for remaining activity at 2600 µM: tested concentration 2.6 mM; for remaining activity at 2700 µM: tested concentration 2.7 mM; for remaining activity at 2800 µM: tested concentration 2.8 mM; for remaining activity at 2000 µM: tested concentration 2.0 mM.

Setting [1] is: residual activity of DdlB, fragment library screening, read-out: DdlB RA.
The mark [2] stands for this setting: residual activity, read-out: DdlB RA.
The mark [3] stands for this setting: fragment library screening, read-out: DdlB RA.

With `Oc1cccc2[nH]ccc12` [FLD010], under setting [1], the remaining activity at 2500 µM turned out to be 100%.

For the compound `O=C(O)CCc1nnc2ccccn2c1=O` [Compound Y042-3065], the remaining activity at 2300 µM (read-out: DdlB RA) worked out at 102%.

In the case of `CC(C)c1cccc(O)c1` [FLD176], the remaining activity at 2500 µM under setting [1] came out at 95%.

On to `Cc1nc(CCOC2CCCNC2)no1` (stereo not shown) [SC04-0106], for which the remaining activity at 2400 µM (read-out: DdlB RA) turned out to be 95%.

`O=c1c(O)c(NC2CC2)c1=O` [Compound G317-0511]: the remaining activity at 3300 µM (tested concentration 3.3 mM, read-out: DdlB RA) was 90%.

With `CCn1cnnc1CC1CCCN(C(=O)c2ccco2)C1` (stereo not shown) [Compound T501-0329], under setting [2], the remaining activity at 2100 µM turned out to be 69%.

As for `NS(=O)(=O)c1cccc2cccnc12` [Compound R005-0042], the remaining activity at 2400 µM (read-out: DdlB RA) stood at 88%.

In the case of `CCn1nccc1C(=O)N1CC(n2ccnc2C)C1` [Compound S695-2086], where the note is “read-out: DdlB RA”, the remaining activity at 1900 µM was determined as 95%.

Consider `Oc1nonc1N1CCCC1` [Compound 8018-8553], for which the remaining activity at 3200 µM (read-out: DdlB RA) came to 116%.

As for `O=S(=O)(O)c1nc2ccccc2n1Cc1ccccc1` [Compound 8019-7098], where the note is “read-out: DdlB RA”, the remaining activity at 1700 µM was 102%.

For `O=c1c(O)c(N2CCN(c3ccccc3)CC2)c1=O` [Compound G317-0478], the remaining activity at 1900 µM (read-out: DdlB RA) came to 96%.

As to `Fc1cc(Br)ccc1CN1CCCNCC1` [FLD158], the remaining activity at 2500 µM under setting [1] stood at 63%.

In the case of `Nc1cc(Cl)ccc1O` [FLD032], under setting [1], the remaining activity at 2500 µM was 100%.

As for `C#Cc1cccc(OC)c1` [FLD182], under setting [1], the remaining activity at 2500 µM was 91%.

Take `O=C(C1CC1)N1CC(c2n[nH]c(C3CC3)n2)C2(CCC2)C1` (stereo not shown) [SC70-0192]: under setting [2], the remaining activity at 1700 µM was 95%.

Take `Cc1cc(C)nc(NC#N)n1` [FLD119]: under setting [1], the remaining activity at 2500 µM turned out to be 100%.

For the compound `Cc1onc(C(=O)O)c1COc1ccc([N+](=O)[O-])cc1` [Compound Y504-8568], the remaining activity at 1800 µM under setting [3] turned out to be 97%.

With `O=c1[nH]c(O)ncc1S(=O)(=O)NC1CCCCC1` [Compound D668-0013], the remaining activity at 1800 µM under setting [2] was determined as 99%.

For the compound `O=[N+]([O-])c1ccc(Cl)nc1` [FLD142], the remaining activity at 2500 µM under setting [1] amounted to 92%.

`O=C(O)C1CSC(c2c(F)cc(F)cc2F)N1` (stereo not shown) [Compound 8011-4426]: under “read-out: DdlB RA”, the remaining activity at 1900 µM is 90%.

For `O=C(O)c1ccccc1NC(=O)c1[nH]ncc1[N+](=O)[O-]` [Compound 8010-7769], the remaining activity at 1800 µM under setting [2] turned out to be 99%.

Take `CCn1c(C(=O)N2CCC(C(=O)O)CC2)cc2occc21` [FF01-0413]: under setting [2], the remaining activity at 1900 µM turned out to be 110%.

Regarding `O=C(O)c1cc2nccc(-c3cccs3)n2n1` [Compound 18, 7-(Thiophen-2-yl)pyrazolo[1,5-a]pyrimidine-2-carboxylic acid], the remaining activity at 1500 µM was 87% and the remaining activity at 5000 µM came out at 69%.

As to `NCCc1noc(C2CC2)n1` [Compound S399-0482], the remaining activity at 2600 µM under setting [1] was determined as 95%.

On to `Cc1cc(N)no1` [FLD014], for which the remaining activity at 2500 µM under setting [1] was 104%.

Take `O=C(O)c1ccco1` [FLD096]: the remaining activity at 2500 µM under setting [1] turned out to be 95%.

As to `COc1cccc2c(O)c(C(=O)O)cnc12` [Compound 8019-9999], the remaining activity at 2300 µM under setting [2] came out at 78%.

`O=C(O)Cc1nc(-c2cnccn2)n[nH]1` [Compound 8020-1590]: the remaining activity at 2400 µM (read-out: DdlB RA) turned out to be 102%.

As to `NC(=S)Nc1ccc(F)cc1` [FLD107], the remaining activity at 2500 µM under setting [1] amounted to 95%.

For `CC1=CC(C)(C)N(C)c2cc(O)ccc21` [Compound Y021-0895], the remaining activity at 2700 µM (read-out: DdlB RA) is 88%.

In the case of `O=C(O)Cc1ccsc1` [FLD003], the remaining activity at 2500 µM under setting [1] is 100%.

Take `CC(=O)NCCc1ccc(S(N)(=O)=O)cc1` [Compound 2332-0866]: the remaining activity at 2100 µM (read-out: DdlB RA) was found to be 94%.

In the case of `O=C(O)Cn1nnc(-c2cccc(-n3cccn3)c2)n1` [Compound 8020-8838], the remaining activity at 1900 µM under setting [3] stood at 92%.

Turning to `Cc1cc(C(=O)O)nn1C(F)F` [Compound Y503-2420], the remaining activity at 2800 µM (read-out: DdlB RA) is 85%.

Consider `O=C1CNC(=O)N1` [FLD041], for which, under setting [1], the remaining activity at 2500 µM was 95%.

As to `C#CC(=O)NC(C)c1c(C)nn(C)c1C` (stereo not shown) [Compound T001-1381], where the note is “read-out: DdlB RA”, the remaining activity at 2400 µM came to 87%.

Consider `CCN(C(=O)c1n[nH]cc1Cl)c1ccccc1` [Compound Y501-5069], for which the remaining activity at 2400 µM (read-out: DdlB RA) turned out to be 95%.

Consider `OC12CC3CC(C1)CC(NCc1cccnc1)(C3)C2` [Compound 8020-0633], for which, under “read-out: DdlB RA”, the remaining activity at 1800 µM was 92%.

In the case of `Cc1ccc(C2(O)CC(C)N(C)CC2C)cc1` (stereo not shown) [Compound 8007-1141], the remaining activity at 2600 µM (read-out: DdlB RA) was found to be 94%.

In the case of `O=C(O)Cc1cccs1` [FLD146], the remaining activity at 2500 µM under setting [1] came out at 95%.

As to `O=C(O)CCc1cc(=O)[nH]o1` [Compound 8019-7777], the remaining activity at 3200 µM (read-out: DdlB RA) turned out to be 91%.

For the compound `N#CC1(N2CCOCC2)CCCC1` [Compound 8019-5695], under setting [1], the remaining activity at 2800 µM came out at 105%.

Take `O=C(O)c1ccccc1Br` [FLD060]: the remaining activity at 2500 µM under setting [1] is 100%.

Turning to `NC(=O)c1cccnc1` [FLD031], under setting [1], the remaining activity at 2500 µM worked out at 100%.

As for `Oc1cc(-c2cccnc2)n[nH]1` [Compound 8018-0078], the remaining activity at 3100 µM (tested concentration 3.1 mM, read-out: DdlB RA) was 91%.

`Nn1cnn(Cc2ccc([N+](=O)[O-])cc2)c1=O` [Compound 8012-9514]: the remaining activity at 2100 µM (read-out: DdlB RA) was 106%.

As to `Cc1cc2n(n1)CCC(=O)N2CCCC(=O)O` [FF01-0590], the remaining activity at 2300 µM (read-out: DdlB RA) was 92%.

For the compound `Nn1cnnc1` [FLD138], under setting [1], the remaining activity at 2500 µM turned out to be 96%.

For `Oc1nsnc1N1CCOCC1` [Compound 8009-8691], under “read-out: DdlB RA”, the remaining activity at 2700 µM came to 88%.

Take `COCn1nc(C)c(N)c1C` [Compound Y504-8876]: the remaining activity at 3900 µM (residual activity of DdlB, fragment library screening, tested concentration 3.9 mM, read-out: DdlB RA) was found to be 92%.

Consider `O=C(NCc1ccncc1)[C@H]1CC=CC[C@H]1C(=O)O` [Compound Y204-2545], for which the remaining activity at 1900 µM under setting [3] came out at 75%.

In the case of `O=C1CNC(=S)N1` [FLD022], the remaining activity at 2500 µM under setting [1] was 98%.

As to `NS(=O)(=O)Cc1ccccc1Cl` [Compound 8008-0774], the remaining activity at 2400 µM (read-out: DdlB RA) came out at 89%.

Turning to `CNS(=O)(=O)c1ccc2c(c1)CCN2C(C)=O` [Compound Y300-1529], under “read-out: DdlB RA”, the remaining activity at 2400 µM stood at 90%.

With `O=C(O)C#CC12CC3CC(CC(C3)C1)C2` [Compound 8009-2654], the remaining activity at 2400 µM (read-out: DdlB RA) came to 112%.

Regarding `CCC1(C(=O)NC2CCCCCC2)CCCCC(=O)N1` (stereo not shown) [Compound S515-0307], the remaining activity at 2100 µM under setting [2] is 99%.

Turning to `CCN1CCN(c2ccc(NC(C)=O)c(C(=O)O)c2)CC1` [Compound F687-0683], the remaining activity at 1700 µM under setting [2] came to 94%.

On to `OB(O)c1ccc(F)c(F)c1` [Compound 1222-0123], for which, for the setting “read-out: DdlB RA”, the remaining activity at 3200 µM was 88%.

Turning to `CCCc1nnc(-c2ccncc2)o1` [Compound Z632-7367], the remaining activity at 2600 µM (read-out: DdlB RA) worked out at 94%.

Turning to `CC(C)(C)NS(=O)(=O)Cc1ccc(Cl)cc1` [Compound Y031-1123], where the note is “read-out: DdlB RA”, the remaining activity at 2300 µM is 91%.

Regarding `O=C(O)Cn1ccc(=O)[nH]c1=O` [Compound D702-0091], the remaining activity at 2900 µM (tested concentration 2.9 mM, read-out: DdlB RA) worked out at 89%.

As for `COc1ccc(-n2c(C)ccc2C)nc1` [Compound 8014-1211], for the setting “read-out: DdlB RA”, the remaining activity at 2500 µM amounted to 22%.

In the case of `CC1CN(S(=O)(=O)c2ccc(F)cc2)CC(C)O1` (stereo not shown) [Compound Y030-1235], the remaining activity at 2000 µM under setting [2] was determined as 93%.

Consider `O=C(O)c1cc2nccc(-c3ccccc3)n2n1` [Compound 19, 7-Phenylpyrazolo[1,5-a]pyrimidine-2-carboxylic acid], for which the remaining activity at 1500 µM amounted to 90% and the remaining activity at 5000 µM is 50%.

As to `CCCCC(CC)n1nc(O)cc1N` (stereo not shown) [Compound D068-0219], where the note is “read-out: DdlB RA”, the remaining activity at 2500 µM was found to be 100%.

For the compound `Oc1cccc(C(F)(F)F)c1` [FLD173], the remaining activity at 2500 µM under setting [1] amounted to 91%.

Regarding `C=CCn1c(N2CCC(C(=O)O)CC2)nc2ccccc21` [Compound D264-0028], the remaining activity at 1800 µM under setting [3] was 86%.

Take `Nc1ncncn1` [FLD084]: the remaining activity at 2500 µM under setting [1] was determined as 98%.

Take `CC(C)n1nnc2cc(C(N)=O)ccc21` [Compound Z606-2126]: where the note is “read-out: DdlB RA”, the remaining activity at 2400 µM was 92%.

Take `CCCCC(=O)Nc1ccc(S(N)(=O)=O)cc1` [Compound Y030-9753]: where the note is “read-out: DdlB RA”, the remaining activity at 2000 µM came to 96%.

For the compound `CC(C)n1c(S(=O)(=O)O)nc2ccccc21` [Compound 4587-0081], the remaining activity at 2100 µM (read-out: DdlB RA) is 83%.

`CC(C)(C)C(N)Cn1cccn1` (stereo not shown) [Compound 8014-1588]: the remaining activity at 2100 µM under setting [1] came to 99%.

As to `CSCCC(C(=O)O)N1C(=O)NC2NC(=O)NC21` (stereo not shown) [Compound 8011-2492], the remaining activity at 1800 µM (read-out: DdlB RA) came to 95%.

Regarding `O=C(O)c1ccc[nH]1` [FLD034], under setting [1], the remaining activity at 2500 µM amounted to 100%.

With `CCOC(=O)c1[nH]cnc1C` [FLD106], the remaining activity at 2500 µM under setting [1] was 100%.

With `CC(=O)Oc1cccc(C(=O)O)c1` [FLD001], under setting [1], the remaining activity at 2500 µM worked out at 100%.

For the compound `Cc1c[nH]c(=O)[nH]c1=O` [FLD021], the remaining activity at 2500 µM under setting [1] came out at 91%.
